In patent US11136370B2, “Compositions and methods for thrombin generation assay” (The Scripps Research Institute, priority 2016, dated 2021):
Entries after “also recorded” stand apart in the source; their conditions may differ.

Experiments:
FVIII = FVIII activation in rTF/FVIIa-initiated reactions with FX, prothrombin, FVIII, FV (immunoblot); conditions: thrombin blocked with 4 μM DAPA
Description: Quantification of generated FVIIIa-A1 calibrated with known quantities of the fragment. (B) FVIIIa activity calculated from FXa generation in reactions as in (A), but with 10 nM FIXa added and incubated for 180 s at 37° C. (n=4-12). FXa generation depend-ent on FVIIIa-FIXa activity was calculated by subtracting FXa generated by FVIIa and FIXa added individually from that by FVIIa/FIXa added together. (C) FVIIIa activity generated and calculated in reaction as in (A, B) but with the addition of 10 nM TFPIα. Results in A (bottom), B and C—shown as 25th-75th percentile bars, min-to-max whiskers, line at the median; or min-to-max floating bars with line at the mean when n≤3—were analyzed by ANOVA/Tukey tests. ***P<0.001; NS, not significant.
Reactions in 50 mM Tris-buffered saline, pH 7.4, with 0.1% bovine serum albumin included 0.7 nM FVIII, 3 nM FV, 135 nM FX and 1 μM prothrombin without/with 4 μM DAPA. TFPI and other inhibitors were added as indicated. […] After quenching the reaction with 10 mM EDTA, generated FXa was measured with S-2765 (180 μM). FVIIIa procoagulant activity was measured as FIXa-dependent FXa generation; FVIIIa procoagulant activity generated by the nascent TF-FVIIa-FXa complex was calculated by subtracting the amount of FXa produced in reactions initiated by FVIIa and FIXa individually from that produced in reactions initiated by FVIIa/FIXa combined. […]

thrombin generation (TG) = format: biochemical, human; conditions: recalcified PRP containing CTI
Description: TG in PRP or reconstituted PRP was evaluated as known to those skilled in the art. Native PRP was prepared from blood collected into final 12.9 mM trisodium citrate by centrifugation at 250 g for 10 min at 25° C. The platelet count was adjusted to 180×10^3/μl by dilution with homologous PPP obtained by centrifuging PRP for 10 min at 1,500 g. CTI was added at 30-50 μg/ml depending on calibrated potency as assessed by FXIIa inhibition. Reconstituted PRP was prepared with washed platelets prepared from normal PRP by adding ⅕th volume of acid citrate-dextrose (71 mM citric acid, 85 mM trisodium citrate, and 111 mM dextrose, pH 4.5) and 5 U/ml apyrase; following centrifugation at 1,500 g for 10 minutes at 25° C., the platelet pellet was resuspended into PPP lacking FVII (George King Bio-Medical) or FIX (Haematologic Technologies) to give a final platelet count of 180·103/μl PRP was mixed with varying concentrations of rTF and/or 20 pM FIXa in 96-well microtiter plates. The reaction was started by adding 18 mM CaCl2 with 360 μM of the thrombin substrate benzyloxycarbonyl-glycyl-glycyl-L-arginine coupled to the fluorogenic group 7-amido-4-methylcoumarin (Gly-Gly-Arg-AMC; Bachem Americas, Torrance, Calif.). Fluorescence was measured continuously at 37° C. for up to 40 min in a spectrofluorometer (355/460 nm excitation/emission). The rate of fluorescence intensity increase as a function of time (dF/dt) was calculated with Turbo Delphi 2006 (Borland Software Corporation, Austin, Tex.) and converted to thrombin-equivalent concentration (nM) using a calibration curve. The endogenous thrombin potential (ETP) of samples, i.e. total generated thrombin activity, was determined from the area under the TG curve. When specified, TG was measured with a discontinuous 2-stage assay with a detection limit of 5 pM. For this, TG was induced by 0.15 pM rTF and 18 mM CaCl2 in reconstituted FVII-deficient PRP including 30 μg/ml CTI with 400 pM WT FVIIa or iFVIIa without or with 20 pM FIXa. After incubation for up to 11 min at 37° C., reactions were terminated by adding 20 mM EDTA and generated thrombin was measured using the highly sensitive thrombin substrate H-D-CHA-Ala-Arg-AMC.2AcOH (Pefafluor TH, Pentapharm, Basel, Switzerland) at 50 μM concentration. In other experiments, TG was induced by TFiFVIIa-FXa-TFPI or TF-iFVIIa-FXa-NAPc2. These stable complexes were pre-formed by incubating 5 nM FXa, 10 nM TF, 10 nM iFVIIa and 40 nM TFPI or NAPc2 in the presence of 2.5 mM CaCl2 for 2 min at 37° C. Complexes were added into FVII-deficient PRP, followed by incubation for 8 min at 37° C.
PRP was prepared from blood collected into trisodium citrate (final concentration 0.0129 M) by centrifugation for at 250 g for 10 min at 25° C.; the platelet count was adjusted at 180.103 per μl by diluting with homologous platelet-poor plasma (PPP) obtained by centrifuging PRP for an additional 10 min at 1,500 g. When indicated, CTI was added at 30 to 50 μg/ml depending on calibrated potency measured by FXIIa inhibition. Reconstituted PRP was prepared by adding normal washed platelets into PPP (without or with CTI) lacking FVII, FVIII (both from George King Bio-Medical, Overland Park, Kans.) or FIX (Haematologic Technologies). […] generation in PRP was measured as described by Hemker et al. 53 μl of PRP was mixed in 96-well microtiter plates with 15 μl of a solution containing rTF and/or one of the intrinsic coagulation pathway proteases—FXIIa, FXIa or FIXa—to achieve the indicated final concentrations. Antibodies or inhibitors were also added at this point at the concentration indicated for each specific case. The reaction was started by adding between 15 and 20 μl of 100 mM CaCl2 and 2 mM fluorogenic substrate, benzyloxycarbonyl-glycyl-glycyl-L-arginine-7-amido-4-methylcoumarin (Gly-Gly-Arg-AMC; Bachem Americas, Torrance, Calif.).

initial TG = assay: Discontinuous 2-stage assay of initial TG in platelet-poor plasma; format: biochemical, human
Description: FIG. 21 illustrates, in accordance with embodiments herein, TG assays in FVIII-deficient PPP without or with anti-FVIII inhibitors. (A) Initial TG in discontinuous 2-stage assay was induced by adding 150 fM rTF/200 pM FIXa and 5 μM PL, followed by incubation for 5 min at 37° C. Each column indicates mean+SEM (n=3) of generated FIIa. (B) Comparison of dose-response curve of added FVIII in TG in FVIII-deficient plasma by discontinuous 2-stage assay with that by continuous assay.
FIG. 22 illustrates, in accordance with embodiments herein, FVIIIa-dependent and -independent TG in plasma from Coumadin-treated patients. FVIIIa-dependent TG was induced by adding 150 fM rTF/200 pM FIXa with 1.3 μM PL, while FVIIIa-independent TG was by 1.2 pM rTF with 1.3 μM PL. Each column indicates mean+SEM (n=3) of generated FIIa after 3 min of incubation.
To establish highly sensitive TG assay method, the inventors made a screening of FIIa substrates with high affinity and turnover rate by determining kinetic parameters and then constructed a calibration curve with known concentrations of a FIIa calibrator. In the studies, they found two fluorogenic substrates H-D-cyclohexyl-alanyl-alanyl-argininyl-amidomethylcoumarin (AMC) (Pefafluor TH) and butyloxycarbonyl-valyl-prolinyl-argininyl-AMC (V-P-R-AMC) were suitable for quantifying much low concentrations of FIIa activity with a detection limit of ˜5 pM (FIG. 17). Initial TG was measured with “discontinuous 2-stage assay” using the high sensitive substrate. Briefly, TG was initiated by combined addition of rTF and FIXa with 18 mM CaCl2 into plasma, followed by incubation for up to 5 min at 37° C. After incubation, reactions were terminated with 20 mM EDTA and generated FIIa was measured using the highly sensitive FIIa substrate Pefafluor TH or V-P-R-AMC. In the assays, combined addition of 150 fM rTF and 200 pM FIXa time-dependently produced FIIa in normal platelet-poor plasma (PPP) prepared from healthy donors (FIG. 18A). […] To further validate the assay method, reproducibility of the TG assay method was examined by determination of intra-assay and inter-assay coefficient of variations (CV) using manual assay protocol.

immobilized rTF = assay: Blood perfusion over immobilized rTF, volume of platelet aggregates and fibrin; format: cell-based, human
Description: (§1) Glass coverslips treated with 0.2 mg/ml poly-L-lysine for 6 h at 37° C. were coated with rTF for 18-20 hours at 37° C. or 2.5 mg/ml acid-insoluble type I collagen for 2 hours at 22-25° C. Then they were rinsed with pH 7.4 buffered-saline, assembled in a rectangular flow chamber with a 125 μm-high silicon gasket and positioned on a confocal microscope stage for analysis. Venous blood for testing was collected into final 10.9 mM trisodium citrate using a plastic syringe for normal volunteers or Vacutainer tubes (Becton Dickinson, Buccinasco, Milan) for patients and controls. Before perfusion at a flow rate yielding an initial wall shear rate of 300 s^−1 maintained with a syringe pump (Harvard Apparatus, Holliston, Mass.), CaCl2 was added to obtain 1.29 mM Ca^2+. In the blood of patients—potentially hypercoagulable—and related controls, lepirudin (50 nM) was also added to neutralize thrombin possibly generated before testing. […] For experiments with WT and mutant FVIIa, cells from group O citrated blood, containing 50 μg/ml CTI and 10 U/ml (ADPase activity) apyrase, were washed free of plasma by sequential centrifugation steps at 1500 g for 7 min. After the first, plasma was replaced with an equal volume of calcium-free Tyrode buffer, pH 6.5, with 5 U/ml apyrase; then with buffer and 1.25 U/ml apyrase; and finally with human FVII deficient plasma (George King Bio-Medical, Overland Park, Kans.) up to the original blood volume. Cell count results in reconstituted and native blood were within 90%. Experiments in Milan (Italy) were performed with a Leica TCS SP5 microscope and HCX PL APO 63x/1.40 NA oil immersion objective (Leica Microsystems GmbH, Wetzlar, Germany); in La Jolla (California) with a Zeiss Axiovert 135M/LSM 410 and Plan-Apochromat 40x/1.40 NA oil immersion objective (Carl Zeiss AG, Oberkochen, Germany).
(§2) Platelets adhering and aggregating onto the surface were visualized by adding quinacrine-HCl (mepacrine; 10 μg/ml; Sigma-Aldrich) to blood. Deposited fibrin was visualized with Alexa Fluor 546-labeled (Invitrogen) mouse monoclonal IgG (50 μg/ml) specific for the B chain of mouse and human fibrin (HB-8545; ATCC). Blood was perfused for 3-5 min at 37° C. with a syringe pump (Harvard Apparatus Inc.) at a flow rate yielding an initial (in the unobstructed flow path) wall shear rate of 300 s^−1. This was followed by buffer (DMEM) for 2 minutes to facilitate fibrin quantification by confocal z section analysis using a Zeiss Axiovert 135M/LSM 410 microscope (Carl Zeiss) and Plan-Apochromat×63/1.40 NA oil immersion objective. Image analysis was performed with NIH ImageJ64. Deposited fibrin volume was measured from confocal sections collected at 4 preset positions in the flow chamber. Total volume of deposited platelets and fibrin was calculated from the sum of the respective area coverage per section multiplied by the z interval (2 μm). All studies involving human subjects were conducted following institutionally approved protocols.
TF-coated glass coverslips were perfused with venous blood at a wall shear rate of 300 s^−1. A Zeiss Axiovert 135M/LSM 410 and Plan-Apochromat 40x/1.40 NA oil immersion objective (Carl Zeiss AG, Oberkochen, Germany) was used to visualize platelets/leukocytes and fibrin stained with mepacrine and a specific anti-body, respectively. Image analysis to calculate volumes was performed as described herein.
Glass coverslips treated with 0.2 mg/ml poly-L-lysine for 6 h at 37° C. were coated with rTF for 18-20 hours at 37° C., rinsed with buffered-saline and assembled in a rectangular flow chamber with a 125 μm-high silicon gasket. Venous blood was collected into final 10.9 mM trisodium citrate using a plastic syringe. CaCl2 was added to obtain 1.29 mM Ca^2+ before perfusion at a wall shear rate of 300 s-1 maintained with a syringe pump (Harvard Apparatus, Holliston, Mass.). […]

[1] = system: fibrillar collagen type I; assay: Blood perfusion over fibrillar collagen type I, volume of platelet aggregates and fibrin; format: cell-based, human; conditions: blood of treated patients, collagen surface
Description: The volume of platelet aggregates and deposited fibrin was measured by confocal microscopy. Statistical analysis by one-way ANOVA and Tukey post-test. *P<0.05; **P<0.01; ***P<0.001.
as §1, with “Cell count results in reconstituted and native blood were within 90%.” left out
as §2, with “Blood was perfused for 3-5 min at 37° C. with a syringe pump (Harvard Apparatus Inc.) at a flow rate yielding an initial (in the unobstructed flow path) wall shear rate of 300 s^−1.” left out, “Image analysis was performed with NIH ImageJ64.” left out, “All studies involving human subjects were conducted following institutionally approved protocols.” left out

TF-FVIIa = assay: FXa generation by TF-FVIIa in reactions with purified components; format: biochemical, human; conditions: reconstituted system

Compound: CCC1CCN(C(=O)C(CCCN=C(N)N)NS(=O)(=O)c2cccc3c(N(C)C)cccc23)CC1 (centres unmarked) [DAPA, dansylarginine N-(3-ethyl-1,5-pentanediyl)amide]
- FVIIIa still detectable (FVIII): ~15%

Compound: COc1ccc(-n2nc(C(N)=O)c3c2C(=O)N(c2ccc(N4CCCCC4=O)cc2)CC3)cc1 [apixaban]
- difference in dose response between rivaroxaban and apixaban (thrombin generation (TG)): ~3 fold

Compound: CC(=O)CC(c1ccccc1)c1c(O)c2ccccc2oc1=O (centres unmarked) [warfarin]
- FVIIIa-independent TG (initial TG; 1.2 pM rTF alone without FIXa, patient plasma): abolished even at lower INR
- initial FVIIIa-dependent TG (initial TG; patient plasma with INR 1.5, 150 fM rTF/200 pM FIXa, 1.3 μM PL, 3 min): ~15 % of normal plasma
- initial FVIIIa-dependent TG (initial TG; patient plasma with INR 2.9, 150 fM rTF/200 pM FIXa, 1.3 μM PL, 3 min): ~5 % of normal plasma
- initial FVIIIa-dependent TG (initial TG; patient plasma with much higher INR values): completely abolished
- fibrin deposition (immobilized rTF; blood of treated patients, high density TF surface): significantly reduced
- volume of deposited fibrin (immobilized rTF; blood of treated patients, higher rTF coating concentration, 300 s^-1, 5 min): markedly reduced fibrin formation
- volume of deposited fibrin vs untreated controls (immobilized rTF; blood of treated patients, lower rTF coating concentration, 300 s^-1, 5 min): markedly smaller
- volume of platelet aggregates vs controls (immobilized rTF; blood of treated patients, rTF coating 20 and 40 pM): significantly reduced on both rTF surfaces
- mean volume of platelet aggregates vs controls [1]: not significantly different
- volume of deposited fibrin vs controls [1]: significantly reduced; also recorded: markedly reduced

Compound: TFPI with protein S: TFPI with protein S (PS) cofactor
- reduction of FXa produced by TF-FVIIa (TF-FVIIa): > 75%

Compound: recombinant [Leu1-Thr2]-63-desulfohirudin [lepirudin]
- effect on deposited fibrin volume in the flow chamber (immobilized rTF; lepirudin 50 nM, preliminary experiments): limited effect
